Laboratory results reported in patent US11129845B2, “Compositions and methods for the delivery of nucleic acids” (CASE WESTERN RESERVE UNIVERSITY, priority 2014, dated 2021).

Experiments:
[1] = tested on: HT29 colon carcinoma cells; experiment: Cellular uptake of Alexa Fluor 488-siRNA via flow cytometry; assay type: cell-based, human; details: HT29, N/P=18, 4 h, 100 nM Alexa Fluor 488-siRNA
Procedure: Flow cytometry was used to investigate the cellular uptake of our delivery system in HT29 colon carcinoma cells. All carriers in the library were formulated into nanoparticles by condensing Alexa Fluor 488-labeled siRNA at the optimal N/P ratio determined by the above luciferase knockdown studies. Approximately 50,000 cancer cells were seeded in 6-well plates and allowed to grow until 30-50% confluence was reached. The cancer cells were transfected with a 100 nM siRNA dose in serum-free media. After 4 h, the transfection media were aspirated and the cells were washed twice with PBS. The cells were then trypsinized, collected, and fixed with 2% paraformaldehyde in PBS, prior to flow cytometric analysis.

[2] = Nanoparticle diameter and polydispersity by dynamic light scattering (Malvern Zetasizer); assay type: physicochemical; details: for Nanoparticle diameter as measured by dynamic light scattering: siRNA-lipid complexes
Procedure: (§1) The cationic lipid carriers are dissolved in ethanol at a stock concentration of 2.5 mM, while all siRNA is reconstituted in nuclease-free water at a 0.25 μg/μL (18.8 μM) concentration. Nanoparticles are formulated by mixing the carriers with siRNA for a period of 30 min in RNase-free phosphate buffer saline (PBS) at pre-specified N/P ratios (N=number of protonable amines in lipid, P=number of phosphate groups in the siRNA). In preparing the lipoplexes, proper dilutions were made such that the volume ratio of ethanol:water was kept constant at 1:20. Minimizing the amount of ethanol is important because it is effective in dissolving lipids, thus inhibiting particle formation. The diameters (as determined by dynamic light scattering) and zeta potentials of all nanoparticles were analyzed using a Malvern Zetasizer instrument at pH=7.4. siRNA encapsulation efficiency was calculated using a RiboGreen fluorescence-based assay from Invitrogen, designed specifically for detection of free RNA at […] wavelengths of 480 and 520 nm, respectively. Nanoparticles were created with all carriers in the library so that final siRNA concentrations were 1.6 μg/mL. A linear standard curve was utilized to calculate the encapsulation efficiencies from signal intensities measured by a SpectraMax microplate reader (Molecular Devices).

[3] = tested on: CHO-GFP cells; assay type: cell-based, Chinese hamster
Procedure: Cytotoxicity of the carriers was investigated using an MTT colorimetric assay measuring cellular metabolic activity (Invitrogen). The transfection procedure was identical to that presented for the reporter knockdown studies above, except for the fact that 96 well plates were utilized instead, and seeded with 10,000 cells per well. After transfection, the cells were allowed to grow for an additional 48 h. At that point, they were incubated with MTT for 4 h, followed by an additional 4 hour incubation with an SDS-HCl solution to dissolve any insoluble formazan crystals formed by the reduction of MTT by NAD(P)H-dependent enzymes in the cells. The absorbance of each sample was measured at 570 nm using a SpectraMax microplate reader. Cellular viability was calculated by averaging the signal intensities over three replicates and then normalizing the results relative to the negative control data.
The RNAi capabilities of each carrier were investigated by analyzing the silencing of a luciferase (Luc) reporter in HT29 cancer cells after anti-Luc siRNA therapy. To perform this study, we seeded HT29-Luc cells in 12 well plates at a density of 20,000 cells per well. […] Luciferase expression was determined using a Spectra Max luminometer upon the addition of a light-inducing substrate to the collected protein. […]

[4] = Zeta-potential of siRNA-lipid complexes (Malvern Zetasizer); assay type: physicochemical
Procedure: as §1

[5] = tested on: luciferase reporter; experiment: Luciferase reporter silencing in HT29-Luc cells; assay type: cell-based, human; details: HT29, N/P 18, 72 h post-transfection
Procedure: Gene silencing efficiency was investigated in the HT29-Luc cell line by analyzing the expression of a luciferase reporter after anti-Luc siRNA therapy. To perform this study, cancer cells were seeded in 12 well plates at a density of 20,000 cells per well. Transfections were conducted in fresh serum-free media with 100 nM of siRNA when the cells were 25% confluent. The cells continued to grow in normal growth media for an additional 48 and 72 h, at which point they were rinsed twice with PBS and lysed for protein collection. The lysis buffer was a component of a Promega Luciferase Assay kit designed for measuring luciferase expression in the cell lysate. Equally important, the lysis buffer was compatible with the BCA protein assay so that we were able to normalize the luciferase expression in our samples with total protein content. For this silencing study, all synthesized carriers were evaluated at N/P ratios of 8, 10, 12, 14, 16, 18, and 20 to determine the best transfection formulation. Relative luciferase expression was determined for each trial using a SpectraMax luminometer upon the addition of a light-inducing luciferin substrate to the collected protein.
The RNAi capabilities of each carrier were investigated by analyzing the silencing of a luciferase (Luc) reporter in HT29 cancer cells after anti-Luc siRNA therapy. To perform this study, we seeded HT29-Luc cells in 12 well plates at a density of 20,000 cells per well. When 25% confluency, the cells were incubated with fresh serum-free transfection media containing nanoparticles at a dose of 100 nM siRNA. After 4 hours, the media was replaced with fresh complete growth media, so that the cells could continue to grow for an additional 48-72 hours, at which point they were lysed for protein collection. The lysis buffer was compatible with the BCA protein assay so that we could normalize luciferase expression in our samples. Negative controls included cells that were treated with 1) particles encapsulating non-specific siRNA, 2) naked anti-Luc siRNA, or 3) plain serum-free media. Luciferase expression was determined using a Spectra Max luminometer upon the addition of a light-inducing substrate to the collected protein. A similar knockdown experiment was also conducted in non-cancerous CHO cells expressing a GFP reporter. Flow cytometry was utilized to assess the silencing efficiency of the ECO and ECL delivery systems in this cell line. Cytotoxicity of the carriers 48 hours post-transfection was also investigated in both cell lines using an MTT colorimetric assay. […] These RNAi silencing levels surpassed those obtained with a Lipofectamine RNAiMax commercial transfection agent.

[6] = tested on: Red blood cells (RBCs); experiment: pH-sensitive hemolytic activity of carrier library; assay type: cell-based, rat; details: all N/P ratios (5, 10, 15) and pHs (7.4, 6.5, 5.4) tested
Procedure: Hemolytic activity of each carrier was determined to verify the pH-sensitive membrane disruption capabilities of each carrier in the delivery system. Red blood cells (RBCs) extracted from rats were purchased from Innovative Research Inc. (Novi, Mich.) and diluted 1:50 in PBS solutions of pHs=5.4, 6.5, or 7.4. A total of 100 μL of nanoparticles were created at N/P ratios of 5, 10, 15 and then incubated with 100 μL of diluted RBCs at 37° C. for 2 h. Nanoparticles were formulated so that the final amine concentration for all the samples, after mixing with the RBCs, was 150 μM. Multiple pHs were tested to predict if the nanoparticles could disrupt membranes of the endosomal-lysosomal compartments (pH=5-6), without affecting the integrity of the outer cell membrane prior to endocytosis (pH=7.4). The absorbance of each test sample was measured on a SpectraMax spectrophotometer at a wavelength of 540 nm in order to determine the amount of hemoglobin released from the RBCs, due to membrane destabilization, relative to that achieved by a positive control treatment of 1% (v/v) Triton-X100 surfactant during the 2 hour incubation period.

Compound | cellular uptake, mean fluorescence intensity (MFI) [1] | Polydispersity of siRNA-lipid complexes ([2]; N/P = 2) | Polydispersity of siRNA-lipid complexes ([2]; N/P = 5) | Polydispersity of siRNA-lipid complexes ([2]; N/P = 8) | Polydispersity of siRNA-lipid complexes ([2]; N/P = 10) | Polydispersity of siRNA-lipid complexes ([2]; N/P = 15) | Nanoparticle diameter as measured by dynamic light scattering ([2]; N/P = 2) [nm] | Nanoparticle diameter as measured by dynamic light scattering ([2]; N/P = 5) [nm] | Nanoparticle diameter as measured by dynamic light scattering ([2]; N/P = 8) [nm] | Nanoparticle diameter as measured by dynamic light scattering ([2]; N/P = 10) [nm] | Nanoparticle diameter as measured by dynamic light scattering ([2]; N/P = 15) [nm] | relative cell viability (MTT) [3] [%] | Zeta-potential of siRNA-lipid complexes ([4]; pH = 7.4, N/P = 2) [mV] | Zeta-potential of siRNA-lipid complexes ([4]; pH = 7.4, N/P = 5) [mV] | Zeta-potential of siRNA-lipid complexes ([4]; pH = 7.4, N/P = 8) [mV] | Zeta-potential of siRNA-lipid complexes ([4]; pH = 7.4, N/P = 10) [mV] | Zeta-potential of siRNA-lipid complexes ([4]; pH = 7.4, N/P = 15) [mV] | luciferase knockdown (transfection efficiency) [5] [%] | hemolytic activity relative to Triton X-100 [6]
CCCCC/C=C\C/C=C\CCCCCCCC(=O)NC(CS)C(=O)NC(Cc1cnc[nH]1)C(=O)NCCNC(=O)CCN(CCCNCCCCNCCCN)CCC(=O)NCCNC(=O)C(Cc1cnc[nH]1)NC(=O)C(CS)NC(=O)CCCCCCC/C=C\C/C=C\CCCCC (stereo not drawn) [SHCLn] | 4414±413 | 0.246 | 0.183 | 0.174 | 0.114 | 0.163 | 559 ± 38 | 223 ± 23 | 119 ± 13 | 132 ± 15 | 75 ± 10 | 83.3±4.22 | −32.09 ± 1.65 | 24.02 ± 1.07 | 26.35 ± 1.40 | 25.59 ± 2.22 | 23.80 ± 2.95 |  | 
CCCCCCCC/C=C\CCCCCCCC(=O)NC(CS)C(=O)NC(Cc1cnc[nH]1)C(=O)NCCNC(=O)CCN(CCCNCCCCNCCCN)CCC(=O)NCCNC(=O)C(Cc1cnc[nH]1)NC(=O)C(CS)NC(=O)CCCCCCC/C=C\CCCCCCCC (stereo not drawn) [SHCO] | 3580±244 | 0.238 | 0.192 | 0.189 | 0.154 | 0.124 | 441 ± 32 | 238 ± 27 | 139 ± 17 | 151 ± 16 | 46 ± 8 |  | −32.09 ± 1.65 | −18.5 ± 2.43 | 18.32 ± 1.45 | 21.76 ± 2.31 | 23.94 ± 1.70 |  | 
CCCCCCCC/C=C\CCCCCCCC(=O)NC(CS)C(=O)NC(Cc1cnc[nH]1)C(=O)NCCNC(=O)CCN(CCN)CCC(=O)NCCNC(=O)C(Cc1cnc[nH]1)NC(=O)C(CS)NC(=O)CCCCCCC/C=C\CCCCCCCC (stereo not drawn) [EHCO] | 1957±208 | 0.276 | 0.195 | 0.165 | 0.122 | 0.161 | 480 ± 30 | 427 ± 25 | 380 ± 18 | 141 ± 15 | 51 ± 10 |  | −23.14 ± 2.47 | −14.09 ± 1.88 | 5.54 ± 1.37 | 18.80 ± 1.02 | 22.68 ± 2.08 | 46.4±5.8 | 
CCCCC/C=C\C/C=C\CCCCCCCC(=O)NC(CS)C(=O)NC(Cc1cnc[nH]1)C(=O)NCCNC(=O)CCN(CCN)CCC(=O)NCCNC(=O)C(Cc1cnc[nH]1)NC(=O)C(CS)NC(=O)CCCCCCC/C=C\C/C=C\CCCCC (stereo not drawn) [EHCLn] |  | 0.299 | 0.197 | 0.167 | 0.112 | 0.127 | 403 ± 35 | 379 ± 28 | 227 ± 20 | 130 ± 14 | 60 ± 11 |  | −23.73 ± 2.26 | −17.04 ± 1.32 | 0.49 ± 1.17 | 11.34 ± 1.67 | 24.92 ± 2.89 |  | 
CCCCCCCC/C=C\CCCCCCCC(=O)NC(CS)C(=O)NCCNC(=O)CCN(CCCNCCCCNCCCN)CCC(=O)NCCNC(=O)C(CS)NC(=O)CCCCCCC/C=C\CCCCCCCC (stereo not drawn) [SCO] |  | 0.339 | 0.236 | 0.19 | 0.158 | 0.176 | 407 ± 35 | 138 ± 28 | 63 ± 12 | 65 ± 11 | 53 ± 9 |  | −29.49 ± 1.33 | 26.60 ± 2.76 | 23.16 ± 1.88 | 23.29 ± 3.11 | 25.16 ± 3.75 |  | greatest hemolytic activity
